# How the values were obtained:
# [1] = Solubility of CBD in water, MCT oil and the liposomal polymeric emulsion; assay type: physicochemical
# Excerpt: (E. Samara and M. Bialer, Drug Metab. Dispos., 16 (6) 875-879 (1988). This provides a maximum weight/weight percent of approximately 0.07%.
# In certain embodiments of the present teaching, hyaluronic acid may be present in the polymeric-emulsion disclosed herein. Such embodiments also include the presence of water. […] In the present case, this value was slightly exceeded in testing the liposomal polymeric emulsion set forth herein in combination with hyaluronic acid, water and MCT as the hydrophobic component. […] That said, the polymeric liposomal emulsion set forth herein retains the ability to dissolve water soluble compounds even when incorporating oil-soluble compounds at a relatively high percentage or amount.
# [2] = accepted value (Samara and Bialer 1988); cited from earlier work
# [3] = liposomal polymeric emulsion with hyaluronic acid, water and MCT
smiles,measurement,setting,value
"C=C(C)[C@@H]1CCC(C)=C[C@H]1c1c(O)cc(CCCCC)cc1O [CBD, cannabidiol]",concentration of CBD in stable solution,[1]; MCT oil,400000 µg/mL
same,"concentration of CBD in stable solution, by weight",[1]; MCT oil,40 % by weight
same,increase in CBD solubility compared to base MCT oil,[1]; liposomal polymeric emulsion vs base MCT oil,1.125 fold
same,increase in CBD solubility compared to water,[1]; liposomal polymeric emulsion vs water,greater than 500 fold
same,concentration of CBD in solution,[1]; [3],450000 µg/mL
same,"concentration of CBD in solution, by weight",[1]; [3],45 % by weight
same,maximum weight/weight percent of CBD in water,"[1]; pure water, worked out from 0.7 μg per mL",approximately 0.07%
same,solubility of CBD in pure water,[2],0.7 μg per mL

# Reference: patent US20220160647A1, “TRANSDERMAL DRUG DELIVERY DEVICE/TRANSDERMAL PATCH AND OTHER APPLICATIONS OF EMULSION FORMULATION” (First Necessity, LLC, priority 2020, published 2022)
